Test results: patent US20240390487A1, “TLR AGONISTS FOR REDUCING ACTIVATION-INDUCED PD-1 EXPRESSION ON T CELLS AND METHODS OF USE” (WISCONSIN ALUMNI RESEARCH FOUNDATION, priority 2016, published 2024)

Assays:
Purified DC = assay: IL-12 p70 ELISA of culture supernatant of TLR-agonist-stimulated DC; type: cell-based, mice; conditions: 24 hours, IL12 p70 by ELISA, versus media alone
Description: FIGS. 14A-14D. Changes in PD-1 expression following TLR stimulation are mediated by IL-12 secreted from APCs. Panel A: Purified OT-1 T cells (T), B cells (B), or dendritic cells (DC) were activated with SIINFEKL peptide (SEQ ID NO:1, OVA) or with a non-specific peptide (NS) in the presence of either TLR1/2 (TLR1/2) agonist, TLR7 agonist (TLR7), or media alone. After 24 hours, cells were washed and co-cultured with naïve purified OT-1 CD8+ T cells for an additional 24 hours and then assessed for expression of the indicated surface receptors (4-1BB, CD3, PD-1, LAG3, CTLA-4, and TIM3) by flow cytometry. Shown is the MFI for each marker, with samples assessed in triplicate. Panel B: Purified DC were stimulated in the presence of TLR1/2 agonist, TLR7 agonist, or media alone. After 24 hours, media was collected and used for culture of purified OT-1 CD8+ T cells with naïve DC in the presence of SIINFEKL peptide (SEQ ID NO:1, OVA) or non-specific (NS) peptide. After 24 hours, cells were assessed for expression of the indicated surface receptors (4-1BB, PD-1, LAG3, and CTLA-4) by flow cytometry. Shown is mean and standard error of the MFI for each marker, with samples assessed in triplicate. Panel C: Purified DC were stimulated in the presence of TLR1/2 agonist (Pam3), TLR3 agonist (PolyIC), TLR4 agonist (MPLA), TLR7/8 agonists (Gard, R848), TLR9 agonist (ODN), or media only (none) for 24 hours. Culture supernatant was then evaluated for the presence of IL12 p70 by ELISA. Asterisks indicate significant (p<0.05) IL-12 release compared to media alone. Panel D: Purified DC were stimulated in the presence of TLR1/2 agonist, TLR7 agonist, or media alone. After 24 hours, medium was collected and used for culture of purified OT-1 CD8+ T cells with naïve DC in the presence of SIINFEKL peptide (SEQ ID NO:1, OVA) and, where indicated, 0.1 ng/ml IL-12 or 0.12 μg/mL anti-IL-12 antibody. After 24 hours, cells were assessed for expression of the indicated surface receptors (4-1BB, PD-1, LAG3, and CTLA-4) by flow cytometry. Shown is mean and standard error of the MFI for each marker, with samples assessed in triplicate and are representative of two similar experiments. Asterisks indicate P<0.01.
Changes in PD-1 expression following TLR stimulation are mediated by IL-12 secreted from APCs: TLR are expressed by both T cells and professional APC. To determine if the effects on T-cell checkpoint expression were mediated by direct effects of TLR ligands on T cells or APC, purified OT-1 T cells were activated with SIINFEKL peptide (SEQ ID NO:1) alone or in the presence of TLR1/2 or TLR7 agonist, or with purified DC or B cells pre-treated with TLR agonists. After 24 hours cells were evaluated for expression of 4-1BB, CD3, PD-1, LAG-3, CTLA-4, and TIM-3. […]

OT-1 CD8+ T cells = assay: Adoptive transfer of OT-1 T cells and immunization of C57BL/6 mice, marker expression on splenic OT-1 T cells; type: in vivo; conditions: OVA or FT peptide immunization with TLR ligand versus peptide alone; splenocytes up to 14 days; early after T-cell activation
Text: Vaccine type can affect expression of T-cell checkpoint molecules on activated CD8+ T cells: This Example used an ovalbumin vaccination model. OT-1 cells were adoptively transferred to naïve C57BL/6 mice. The day after transfer, mice were immunized once with (a) DNA encoding ovalbumin, (b) Listeria monocytogenes (Lm) encoding ovalbumin, (c) OVA257-264 peptide (SIINFEKL (SEQ ID NO:1)), (d) SIINFEKL peptide (SEQ ID NO:1) with DNA vector, (e) DNA vector alone, (f) Lm encoding control vector with no antigen, or (g) NS (non-specific) peptide. Splenocytes were collected the day after vaccination for expression of cell surface markers on antigen-specific OT-1 cells. […] LAG-3 expression was not reduced in the presence of Lm co-administered with peptide.
TLR stimulation at the time of T-cell activation reduced expression of PD-1 in vivo: To determine whether TLR stimulation at the time of T-cell activation with vaccination elicited a similar reduction in PD-1 in vivo, OT-1 cells were adoptively transferred to naïve C57BL/6 mice as above, and immunized once with OVA or FT peptide (or non-specific peptide) one day later in the presence or absence of a TLR 1/2, TLR7, or TLR9 ligand. Splenocytes were collected from groups up to 14 days after immunization and evaluated for expression of 4-1BB, PD-1 and LAG-3.
Adoptive transfer and immunization of wild type C57BL/6 (B6) mice: OT-1 splenocytes were harvested and CD8+ T cells were isolated as described above. 2×10^6 OT-1 T cells were adoptively transferred into 6- to 10-week old female B6 mice via intraperitoneal injection. The day following transfer, mice were immunized subcutaneously with 100 μg SIINFEKL peptide (SEQ ID NO:1) in PBS without adjuvant, intradermally with 100 μg plasmid encoding full length secreted chicken egg ovalbumin (pCI-neo-sOVA (psOVA), Addgene plasmid #25098, Cambridge, MA), intraperitoneally with 5×10^6 cfu of a Listeria monocytogenes vector encoding ovalbumin (Lm-OVA, gift of JD Sauer), or vehicle or corresponding wild-type Lm or DNA plasmid vector. TLR agonists were co-injected with the vaccine at the following concentrations: 20 μg/mouse Pam3CSK4, 100 μg/mouse Gardiquimod, 50 μg/mouse ODN 1826, or vehicle. Mice were euthanized at the times indicated. Spleens were collected, processed as described above, and T-cell populations analyzed by flow cytometry. Data collected on different days were normalized using rainbow beads (Spherotech, Lake Forest, IL; RFP-30-5A).

[1] = system: purified OT-1 CD8+ T cells; assay: In vitro co-culture / conditioned medium experiments with APC and OT-1 CD8+ T cells; type: cell-based, mice; conditions: purified DC or B cells pre-treated with TLR agonist, SIINFEKL, 24 hours
Description: FIGS. 14A-14D. Changes in PD-1 expression following TLR stimulation are mediated by IL-12 secreted from APCs. Panel A: Purified OT-1 T cells (T), B cells (B), or dendritic cells (DC) were activated with SIINFEKL peptide (SEQ ID NO:1, OVA) or with a non-specific peptide (NS) in the presence of either TLR1/2 (TLR1/2) agonist, TLR7 agonist (TLR7), or media alone. After 24 hours, cells were washed and co-cultured with naïve purified OT-1 CD8+ T cells for an additional 24 hours and then assessed for expression of the indicated surface receptors (4-1BB, CD3, PD-1, LAG3, CTLA-4, and TIM3) by flow cytometry. Shown is the MFI for each marker, with samples assessed in triplicate. Panel B: Purified DC were stimulated in the presence of TLR1/2 agonist, TLR7 agonist, or media alone. […] After 24 hours, cells were assessed for expression of the indicated surface receptors (4-1BB, PD-1, LAG3, and CTLA-4) by flow cytometry. Shown is mean and standard error of the MFI for each marker, with samples assessed in triplicate. […] Culture supernatant was then evaluated for the presence of IL12 p70 by ELISA. […] After 24 hours, cells were assessed for expression of the indicated surface receptors (4-1BB, PD-1, LAG3, and CTLA-4) by flow cytometry. Shown is mean and standard error of the MFI for each marker, with samples assessed in triplicate and are representative of two similar experiments. […]

Row | Compound | secretion of IL-12 by DC (Purified DC) | PD-1 expression on OT-1 CD8+ T cells in vivo (OT-1 CD8+ T cells) | PD-1 expression on OT-1 T cells activated with TLR-agonist-treated APC [1]
1 | CCNCc1nc2c(N)nc3ccccc3c2n1CC(C)(C)O [Gardiquimod] | greatest secretion | significantly reduced | reduced
2 | Monophosphoryl Lipid A [MPLAs] | No significant secretion |  | 
3 | Pam3CSK4 | greatest secretion | significantly reduced | reduced
4 | Poly(I:C) [PolyI:C] | No significant secretion |  | 
